Consider four molecules from patent publication US20060269950A1, “Method of identifying compounds that modulate interaction of androgen receptor with beta-catenin” (Wyeth, priority 2005, published 2006).

Experiment [1] deals with T1, progesterone receptor (PR) interaction with β-catenin (Homo sapiens, UniProt P06401).
T1 construct: expressed in transfected cells; host or cells: CV-1 cells
T1 sequence (P06401 1-933): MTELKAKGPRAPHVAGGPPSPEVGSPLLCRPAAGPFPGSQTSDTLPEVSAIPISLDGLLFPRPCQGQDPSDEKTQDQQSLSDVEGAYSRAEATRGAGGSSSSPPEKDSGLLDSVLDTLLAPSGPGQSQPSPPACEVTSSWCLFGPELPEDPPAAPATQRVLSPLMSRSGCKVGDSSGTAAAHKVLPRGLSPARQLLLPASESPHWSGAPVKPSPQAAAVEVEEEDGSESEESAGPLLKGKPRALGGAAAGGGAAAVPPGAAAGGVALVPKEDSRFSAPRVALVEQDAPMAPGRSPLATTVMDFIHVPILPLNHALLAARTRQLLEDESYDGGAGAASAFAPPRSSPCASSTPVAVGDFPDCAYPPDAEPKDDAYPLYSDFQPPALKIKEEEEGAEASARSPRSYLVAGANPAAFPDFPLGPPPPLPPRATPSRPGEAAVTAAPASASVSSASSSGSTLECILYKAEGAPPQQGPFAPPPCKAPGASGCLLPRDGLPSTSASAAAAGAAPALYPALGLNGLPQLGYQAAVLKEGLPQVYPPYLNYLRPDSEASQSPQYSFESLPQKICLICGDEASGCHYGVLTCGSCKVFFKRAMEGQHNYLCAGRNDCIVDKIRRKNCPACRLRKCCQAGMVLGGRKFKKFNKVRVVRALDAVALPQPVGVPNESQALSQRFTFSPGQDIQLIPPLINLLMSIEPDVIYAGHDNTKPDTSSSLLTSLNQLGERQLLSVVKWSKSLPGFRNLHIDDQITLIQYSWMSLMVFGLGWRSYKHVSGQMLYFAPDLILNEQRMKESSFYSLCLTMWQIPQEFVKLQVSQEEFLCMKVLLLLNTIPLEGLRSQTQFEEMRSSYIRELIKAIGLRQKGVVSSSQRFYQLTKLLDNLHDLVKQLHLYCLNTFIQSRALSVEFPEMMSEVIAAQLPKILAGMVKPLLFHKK
Kind of experiment: One-hybrid GAL4-β-catenin luciferase reporter assay in CV-1 cells with PR expression plasmid. The class given is cell-based. Particulars: 10 nM, 18 hours. How it is done: (§1) CV-1 cells were cultured on 96 well plates and transfected after 24 hours with the expression and reporter plasmids using the lipofectamine procedure (Invitrogen). In this procedure, the three different plasmid constructs used were mixed in cell culture media and lipofectamine and incubated for 15 minutes according to the manufacturer's instructions (Invitrogen). The plasmid-lipofectamine mixture was diluted in culture medium, added to cells, and incubated for 4 hours. The cells were rinsed and then treated with culture media. Twenty-four hours after transfection, the cells were treated with androgen agonists and antagonists or vehicle. After 18 hours, cell lysates were harvested and assayed for luciferase activity using luciferase reagent (Promega) and a luminometer (Wallac). Other known transfection techniques can be used including, for example, calcium phosphate precipitation transfection technique.
(§2) CV-1 cells were transfected with the 5XGAL4-luciferase reporter and the GAL4-O-catenin expression plasmid in the absence of a nuclear receptor expression vector (−), with the AR, PR, or ER expression plasmid. […] Cell lysates were harvested and analyzed for luciferase activity.

Experiment [2] concerns estrogen receptor (ER) interaction with β-catenin. As to the kind of experiment: One-hybrid GAL4-β-catenin luciferase reporter assay in CV-1 cells with ER expression plasmid. The class given is cell-based. The settings on record: 10 nM, 18 hours. The procedure: as §1, §2
A general note: A reporter such as luciferase makes a cellular process visible.

Experiment [3] deals with T2, interaction between AR and β-catenin (Mus musculus, UniProt P19091).
T2 sequence (P19091 1-899): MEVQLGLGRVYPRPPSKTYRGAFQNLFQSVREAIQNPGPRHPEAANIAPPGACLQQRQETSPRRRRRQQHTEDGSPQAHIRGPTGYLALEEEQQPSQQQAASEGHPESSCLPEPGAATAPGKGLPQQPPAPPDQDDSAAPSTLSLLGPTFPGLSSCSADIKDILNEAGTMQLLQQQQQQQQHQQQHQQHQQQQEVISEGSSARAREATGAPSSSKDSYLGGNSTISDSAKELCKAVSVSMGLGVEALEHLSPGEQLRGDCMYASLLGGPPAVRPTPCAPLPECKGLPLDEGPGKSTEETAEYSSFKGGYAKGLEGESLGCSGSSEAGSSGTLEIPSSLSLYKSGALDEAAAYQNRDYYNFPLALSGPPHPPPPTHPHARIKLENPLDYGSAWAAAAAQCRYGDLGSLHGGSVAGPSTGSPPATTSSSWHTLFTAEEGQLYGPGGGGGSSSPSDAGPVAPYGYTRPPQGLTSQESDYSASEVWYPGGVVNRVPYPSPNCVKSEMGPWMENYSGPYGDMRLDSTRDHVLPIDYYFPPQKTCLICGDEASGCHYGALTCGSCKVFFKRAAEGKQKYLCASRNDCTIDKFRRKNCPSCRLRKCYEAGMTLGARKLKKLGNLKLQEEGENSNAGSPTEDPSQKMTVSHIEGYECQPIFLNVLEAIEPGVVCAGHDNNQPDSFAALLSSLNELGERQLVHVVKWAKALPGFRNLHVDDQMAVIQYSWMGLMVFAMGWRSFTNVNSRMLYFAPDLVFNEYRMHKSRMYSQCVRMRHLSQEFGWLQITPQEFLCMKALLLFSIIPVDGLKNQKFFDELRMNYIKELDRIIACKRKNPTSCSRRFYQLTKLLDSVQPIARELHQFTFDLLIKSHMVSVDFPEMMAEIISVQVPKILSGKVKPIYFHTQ
Kind of experiment: Co-immunoprecipitation of β-catenin followed by Western analysis for AR in L929 cells. Particulars: 300 nM (30-fold excess) in presence of 10 nM DHT, 17 hours.
Protocol: Cell lysates were harvested, precleared with protein A/G sepharose, and β-catenin was immunoprecipitated using a goat polyclonal IgG against β-catenin conjugated to agarose (Santa Cruz Biotechnology). The immunoprecipitates were analyzed by polyacrylamide gel electrophoresis followed by Western analysis for AR and β-catenin (β-cat) as indicated using antibodies from Santa Cruz (FIG. 2).

Experiment [4] deals with T3, interaction between AR and β-catenin (Homo sapiens, UniProt P10275).
T3 construct: The AR expression vector is human full length AR cDNA in pcDNA3; expressed in transfected cells; host or cells: CV-1 cells
T3 sequence (P10275 1-920): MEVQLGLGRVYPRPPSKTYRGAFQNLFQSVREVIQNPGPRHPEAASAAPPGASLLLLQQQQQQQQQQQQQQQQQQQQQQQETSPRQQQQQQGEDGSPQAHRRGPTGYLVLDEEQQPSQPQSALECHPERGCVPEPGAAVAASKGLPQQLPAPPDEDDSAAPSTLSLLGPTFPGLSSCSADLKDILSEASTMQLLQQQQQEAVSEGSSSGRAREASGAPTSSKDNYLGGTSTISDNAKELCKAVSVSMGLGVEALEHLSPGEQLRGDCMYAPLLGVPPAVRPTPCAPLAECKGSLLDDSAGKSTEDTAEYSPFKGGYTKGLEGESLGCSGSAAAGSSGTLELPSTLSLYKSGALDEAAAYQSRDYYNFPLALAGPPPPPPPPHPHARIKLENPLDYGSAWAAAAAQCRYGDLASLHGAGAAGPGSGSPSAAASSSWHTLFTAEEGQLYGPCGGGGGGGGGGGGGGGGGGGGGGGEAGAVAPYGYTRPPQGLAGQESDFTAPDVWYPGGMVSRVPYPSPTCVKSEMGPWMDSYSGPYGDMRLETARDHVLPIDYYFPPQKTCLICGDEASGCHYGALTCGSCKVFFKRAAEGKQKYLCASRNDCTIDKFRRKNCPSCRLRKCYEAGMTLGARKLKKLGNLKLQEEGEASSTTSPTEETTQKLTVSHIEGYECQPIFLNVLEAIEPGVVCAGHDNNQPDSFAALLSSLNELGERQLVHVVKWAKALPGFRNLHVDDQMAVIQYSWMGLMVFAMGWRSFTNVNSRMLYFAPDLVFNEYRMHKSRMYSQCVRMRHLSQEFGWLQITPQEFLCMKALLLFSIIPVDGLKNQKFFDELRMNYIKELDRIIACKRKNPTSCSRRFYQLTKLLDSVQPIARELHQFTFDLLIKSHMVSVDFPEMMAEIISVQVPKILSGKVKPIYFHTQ
Kind of experiment: One-hybrid GAL4-β-catenin/AR luciferase reporter assay in CV-1 cells. The class given is cell-based, African green monkey. Particulars: AR expressing CV-1 cells, 10 nM, 18 hours. How it is done:
as §1
(§3) Cell lysates were harvested and analyzed for luciferase activity.
as §2, §3

`C[C@]12CC[C@@H]3c4ccc(O)cc4CC[C@H]3[C@@H]1CC[C@@H]2O` [17β-estradiol]: the “activity in the one-hybrid assay (reporter activity)” value (“activity in the one-hybrid assay” below) in experiment [1] and in experiment [2] was “no activity” throughout.
With `C[C@]12CCC(=O)C[C@@H]1CC[C@@H]1[C@@H]2CC[C@]2(C)[C@@H](O)CC[C@@H]12` [DHT, dihydrotestosterone], the “activity in the one-hybrid assay” value in experiment [1] and in experiment [2] was “no activity” throughout.
For `CC(C)(O)C(=O)Nc1ccc([N+](=O)[O-])c(C(F)(F)F)c1` [hydroxyflutamide], the “effect on DHT-stimulated AR/β-catenin protein-protein interaction” value in experiment [3] is “attenuated”.
Consider `C[C@H](O)C(=O)[C@@]1(C)CC[C@H]2[C@@H]3CCC4=CC(=O)CCC4=C3CC[C@@]21C` [trimegestone], for which the “activity in the one-hybrid assay” value in experiment [1] and in experiment [2] was “no activity” each time. For the same molecule, in experiment [4], the “reporter (luciferase) activity” value is reported as “not”.
